Results: US9809598B2 (Merck Patent GmbH, priority 2014, dated 2017)
Converted amounts (≈) assume the structure as drawn. Where a name gives a salt, the structure may show the parent alone.

Experiments:
[1] = Solubility pH 7.4; type: physicochemical; details: pH 7.4, aqueous buffer
[2] = Microsomal stability (intrinsic clearance), human liver microsomes; type: in vitro ADME; details: pH 7.4
Description: (§1) Test Method Microsomal Stability (Intrinsic Clearance)
(§2) A microsomal stability assay is used to measure in vitro clearance (Clint). The assay involves measuring the rate of disappearance of a compound due to its intrinsic attitude to be metabolized (“intrinsic” meaning that the disappearance is not affected by other properties like permeability, binding etc. that play a role when quantifying in vivo clearance). The microsomal stability (intrinsic clearance, Clint) and thus metabolic stability is generally given as μl/min/mg protein. It can be visualized as the volume of solution that 1 mg of microsomes is able to clear of the compound in one minute.
(§3) A Tecan Genesis workstation (RSP 150/8) was used for to perform the microsomal incubations. Analysis was carried out using a Waters ACQUITY UPLC system coupled to an ABSciex API3000 mass spectrometer. Data analysis was performed using Assay Explorer (Symyx).
(§4) Chemicals • Potassium phosphate buffer: 0.05 M potassium phosphate buffer pH 7.4 containing 1 mM MgCl2 • NADPH (nicotinamide adenine dinucleotide phosphate): 22.5 mg NADPH-Na4 in 1.8 ml potassium phosphate buffer • Acetonitrile: 50 Vol % acetonitrile (1 volume acetonitrile, 1 volume water) • DMSO: 20 Vol % DMSO in water • Stock solution of 20 mg/ml human or mouse liver microsomes (protein)/ml in phosphate buffer
(§5) Stock solution of 10 mM compound in 100% DMSO

[3] = test system: Tankyrases; details: read-out: EC50 [M] TNKS cellular assay; DLD1 cells, 24 hours, Axin2 increase
[4] = Microsomal stability (intrinsic clearance), mouse liver microsomes; type: in vitro ADME; details: pH 7.4
Description: as §1, §2, §3, §4, §5

[5] = biological target: T1, TNKS2 (Homo sapiens, UniProt Q9H2K2); assay: TNKS2 activity ELISA (autoparsylation assay); type: biochemical; details: GST-tagged Tnks-2 (873-1166 aa); read-out: IC50 [M] TNKS2 ELISA
T1 construct: GST-tagged Tnks-2 (873-1166 aa, prepared in-house); made in house
T1 sequence (Q9H2K2 873-1166): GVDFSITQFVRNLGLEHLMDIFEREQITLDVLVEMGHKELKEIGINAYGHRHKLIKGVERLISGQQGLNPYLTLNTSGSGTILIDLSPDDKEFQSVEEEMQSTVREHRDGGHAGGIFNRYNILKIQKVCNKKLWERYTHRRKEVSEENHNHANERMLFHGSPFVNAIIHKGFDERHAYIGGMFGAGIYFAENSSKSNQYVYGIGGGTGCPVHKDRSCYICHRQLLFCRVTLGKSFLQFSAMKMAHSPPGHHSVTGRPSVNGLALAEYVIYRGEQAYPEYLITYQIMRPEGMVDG
Outline: (§6)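 GST-tagged TNKS1 or TNKS2 captured on glutathione plates and allowed to auto-PARsylate with biotinylated NAD with or without compound. Biotin-ADP-ribosylated enzyme detected by streptavidin-HRP and luminescence; IC50 relative to inhibitor-free reaction.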

[6] = biological target: T2, PARP-1 (Homo sapiens, UniProt P09874); assay: PARP-1 autoparsylation assay (HTRF); type: biochemical; details: His-tagged Parp-1, autoparsylation HTRF
T2 construct: purchased Enzo Life Sciences GmbH, Lörrach, Germany
T2 sequence (P09874 whole entry): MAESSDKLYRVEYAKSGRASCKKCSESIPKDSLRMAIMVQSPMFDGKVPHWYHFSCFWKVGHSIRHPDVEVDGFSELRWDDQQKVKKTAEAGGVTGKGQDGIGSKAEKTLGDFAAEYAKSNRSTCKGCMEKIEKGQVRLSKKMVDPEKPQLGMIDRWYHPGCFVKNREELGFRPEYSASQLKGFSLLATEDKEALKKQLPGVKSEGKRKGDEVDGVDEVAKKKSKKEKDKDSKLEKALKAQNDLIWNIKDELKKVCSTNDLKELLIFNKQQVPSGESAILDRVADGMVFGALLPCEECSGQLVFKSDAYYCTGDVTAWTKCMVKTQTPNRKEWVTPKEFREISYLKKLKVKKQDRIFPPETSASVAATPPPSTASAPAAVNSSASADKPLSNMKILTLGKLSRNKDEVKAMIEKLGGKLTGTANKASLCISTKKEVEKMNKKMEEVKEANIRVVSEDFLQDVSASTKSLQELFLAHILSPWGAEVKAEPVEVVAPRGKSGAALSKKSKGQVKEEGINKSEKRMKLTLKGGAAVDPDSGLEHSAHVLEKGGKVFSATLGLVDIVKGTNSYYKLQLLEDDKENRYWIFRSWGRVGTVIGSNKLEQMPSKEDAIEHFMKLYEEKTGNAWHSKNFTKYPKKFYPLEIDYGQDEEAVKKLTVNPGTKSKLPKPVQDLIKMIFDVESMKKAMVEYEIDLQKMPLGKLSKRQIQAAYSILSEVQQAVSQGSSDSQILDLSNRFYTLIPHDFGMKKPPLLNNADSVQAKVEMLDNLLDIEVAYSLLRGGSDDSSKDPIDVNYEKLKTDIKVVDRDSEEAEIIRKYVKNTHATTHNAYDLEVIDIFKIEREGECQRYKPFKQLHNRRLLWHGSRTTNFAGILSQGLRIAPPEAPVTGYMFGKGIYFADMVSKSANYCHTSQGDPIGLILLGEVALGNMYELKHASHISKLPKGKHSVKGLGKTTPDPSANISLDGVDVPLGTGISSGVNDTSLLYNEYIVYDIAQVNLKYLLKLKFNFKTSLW
Outline: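 His-tagged enzyme auto-modifies itself using biotinylated NAD/NAD; product detected by TR-FRET between cryptate anti-His antibody and Xlent-streptavidin, as emission ratio.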

[7] = biological target: T3, TNKS1 (Homo sapiens, UniProt O95271); assay: TNKS1 activity ELISA (autoparsylation assay); type: biochemical; details: GST-tagged Tnks-1 (1023-1327 aa)
T3 construct: GST-tagged Tnks-1 (1023-1327 aa, prepared in-house); made in house
T3 sequence (O95271 1023-1327): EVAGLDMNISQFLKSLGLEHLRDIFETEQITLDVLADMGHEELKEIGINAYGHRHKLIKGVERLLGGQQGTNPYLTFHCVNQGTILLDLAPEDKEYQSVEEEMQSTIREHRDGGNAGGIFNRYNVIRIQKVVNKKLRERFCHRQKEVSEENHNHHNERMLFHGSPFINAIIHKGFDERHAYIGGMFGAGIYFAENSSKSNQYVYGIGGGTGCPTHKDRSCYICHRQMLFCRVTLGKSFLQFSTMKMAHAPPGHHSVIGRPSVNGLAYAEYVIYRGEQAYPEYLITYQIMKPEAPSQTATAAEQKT
Outline: as §6

| SMILES | solubility [1] [µg/mL] | microsomal CLint [2] [µL/min/mg] | EC50 [3] [M] | microsomal CLint [4] [µL/min/mg] | IC50 [5] [M] | IC50 [6] [nM] | IC50 [7] [nM] |
| --- | --- | --- | --- | --- | --- | --- | --- |
| COc1ccc(C(=O)C2CCN(C(=O)CCCc3nc4ccccc4c(=O)[nH]3)CC2)cc1 [Compound A1, 2-{4-[4-(4-methoxy-benzoyl)-piperidin-1-yl]-4-oxo-butyl}-3H-quinazolin-4-one, reference compound] | 18 (≈ 41.5 µM) | 104 | 2e-09 | 120 | – | – | – |
| COc1ccc(C(=O)C2CCN(C(=O)CCCc3nc4c(F)cc(F)cc4c(=O)[nH]3)CC2)cc1 [Compound A5, 6,8-difluoro-2-{4-[4-(4-methoxy-benzoyl)-piperidin-1-yl]-4-oxo-butyl}-3H-quinazolin-4-one, reference compound] | 5 (≈ 10.6 µM) | 58 | 2.6e-09 | 86 | – | – | – |
| COc1ccc(C(=O)C2CCN(C(=O)CCCc3nc4c(cnn4C)c(=O)[nH]3)CC2)cc1 [Compound C41, 6-{4-[4-(4-Methoxy-benzoyl)-piperidin-1-yl]-4-oxo-butyl}-1-methyl-1,5-dihydro-pyrazolo[3,4-d]pyrimidin-4-one] | 55 (≈ 126 µM) | 25 | 1.8e-09 | 36 | 1.3e-10 | 6300 | 0.18 |
| COc1ccc(C(=O)C2CCN(C(=O)CCCc3nc4c(cnn4C)c(=O)[nH]3)CC2)cc1F [Compound C42, 6-{4-[4-(3-Fluoro-4-methoxy-benzoyl)-piperidin-1-yl]-4-oxo-butyl}-1-methyl-1,5-dihydro-pyrazolo[3,4-d]pyrimidin-4-one] | 158 (≈ 347 µM) | 16 | 4.8e-09 | 51 | < 1e-10 | 12000 | 0.12 |
| COc1ccc(C(=O)C2CCN(C(=O)CCCc3nc4c(cnn4C)c(=O)[nH]3)CC2)cn1 [Compound C43, 6-{4-[4-(6-Methoxy-pyridine-3-carbonyl)-piperidin-1-yl]-4-oxo-butyl}-1-methyl-1,5-dihydro-pyrazolo[3,4-d]pyrimidin-4-one] | 207 (≈ 472 µM) | 15 | 4.3e-09 | 36 | 3.5e-10 | 18000 | 0.52 |
| Cn1ncc2c(=O)[nH]c(CCCC(=O)N3CCC(c4cnc(N)c(-c5ncccn5)c4)CC3)nc21 [Compound C45, 6-[4-(6-Amino-5-pyrimidin-2-yl-3′,4′,5′,6′-tetrahydro-2′H-[3,4′]bipyridinyl-1′-yl)-4-oxo-butyl]-1-methyl-1,5-dihydro-pyrazolo[3,4-d]pyrimidin-4-one] | 42 (≈ 88.7 µM) | 25 | 4.9e-10 | 62 | 1.9e-10 | 3800 | 0.26 |
| Cn1ncc2c(=O)[nH]c(CCCC(=O)N3CCC(C(=O)c4ccc(F)cc4)CC3)nc21 [Compound C48, 6-{4-[4-(4-Fluoro-benzoyl)-piperidin-1-yl]-4-oxo-butyl}-1-methyl-1,5-dihydro-pyrazolo[3,4-d]pyrimidin-4-one] | 206 (≈ 484 µM) | 20 | 4.4e-09 | 59 | 3.1e-10 | 7300 | 0.45 |
| COc1ccc(C(=O)C2CCN(C(=O)CCCc3nc4c(c(=O)[nH]3)COCC4)CC2)cc1 [Compound C52, 2-{4-[4-(4-Methoxy-benzoyl)-piperidin-1-yl]-4-oxo-butyl}-3,5,7,8-tetrahydro-pyrano[4,3-d]pyrimidin-4-one] | 868 (≈ 1970 µM) | < 10 | 4.6e-09 | < 10 | 4.8e-10 | 1900 | 1.4 |
| COc1ccc(C(=O)C2CCN(C(=O)CCCc3nn4cccc4c(=O)[nH]3)CC2)cn1 [Compound C137, 2-{4-[4-(6-Methoxy-pyridine-3-carbonyl)-piperidin-1-yl]-4-oxo-butyl}-3H-pyrrolo[2,1-f][1,2,4]triazin-4-one] | 70 (≈ 165 µM) | 10 | 1.9e-08 | 78 | 1e-09 | 21000 | 1.5 |
| Cc1ccc2c(=O)[nH]c(CCCC(=O)N3CCC(C(=O)c4cnn(C)c4)CC3)nn12 [Compound C157, 7-Methyl-2-{4-[4-(1-methyl-1H-pyrazole-4-carbonyl)-piperidin-1-yl]-4-oxo-butyl}-3H-pyrrolo[2,1-f][1,2,4]triazin-4-one] | 272 (≈ 663 µM) | 22 | 2.7e-09 | 46 | 2.6e-10 | 860 | 0.31 |
| Cn1cc(C(=O)C2CCN(C(=O)CCCc3nn4c(F)c(F)cc4c(=O)[nH]3)CC2)cn1 [Compound C238, 6,7-Difluoro-2-{4-[4-(1-methyl-1H-pyrazole-4-carbonyl)-piperidin-1-yl]-4-oxo-butyl}-3H-pyrrolo[2,1-f][1,2,4]triazin-4-one] | – | – | 5.6e-08 | – | 1.5e-09 | 4100 | 1.5 |
| COc1ccc(C(=O)C2CCN(C(=O)CCCc3nc(C)c(C)c(=O)[nH]3)CC2)cc1 [Compound C239, 2-{4-[4-(4-Methoxy-benzoyl)-piperidin-1-yl]-4-oxo-butyl}-5,6-dimethyl-3H-pyrimidin-4-one] | – | – | 1.5e-08 | – | 8.2e-10 | 24000 | 2.6 |
| Cc1nc(CCCC(=O)N2CCC(C(=O)c3ccc(F)cc3)CC2)[nH]c(=O)c1C [Compound C240, 2-{4-[4-(4-Fluoro-benzoyl)-piperidin-1-yl]-4-oxo-butyl}-5,6-dimethyl-3H-pyrimidin-4-one] | – | – | 5.8e-07 | – | 5.3e-09 | 19000 | 14 |
| CCn1cc(C(=O)C2CCN(C(=O)CCCc3nc4c(ccn4C)c(=O)[nH]3)CC2)cn1 [Compound C243, 2-{4-[4-(1-Ethyl-1H-pyrazole-4-carbonyl)-piperidin-1-yl]-4-oxo-butyl}-7-methyl-3,7-dihydro-pyrrolo[2,3-d]pyrimidin-4-one] | – | – | 3.4e-08 | – | 2.2e-10 | 4200 | 0.47 |
| Cn1ncc2c(=O)[nH]c(CCCC(=O)N3CCC(C(=O)c4ccc(C(C)(F)F)cc4)CC3)nc21 [Compound C245, 6-(4-{4-[4-(1,1-Difluoro-ethyl)-benzoyl]-piperidin-1-yl}-4-oxo-butyl)-1-methyl-1,5-dihydro-pyrazolo[3,4-d]pyrimidin-4-one] | – | – | 4.8e-09 | – | 1.7e-10 | 5800 | 0.41 |
| Cn1ncc2c(=O)[nH]c(CCCC(=O)N3CCC(C(=O)c4ccc(F)c(F)c4)CC3)nc21 [Compound C246, 6-{4-[4-(3,4-Difluoro-benzoyl)-piperidin-1-yl]-4-oxo-butyl}-1-methyl-1,5-dihydro-pyrazolo[3,4-d]pyrimidin-4-one] | – | – | 2.5e-08 | – | 3.2e-10 | 13000 | 0.63 |
| O=C(c1ccc(Cl)cc1)C1CCN(C(=O)CCCc2nc3c(c(=O)[nH]2)COCC3)CC1 [Compound C247, 2-{4-[4-(4-Chloro-benzoyl)-piperidin-1-yl]-4-oxo-butyl}-3,5,7,8-tetrahydro-pyrano[4,3-d]pyrimidin-4-one trifluoroacetate] | – | – | 2.1e-08 | – | 6.6e-10 | 3500 | 3.3 |
| Cn1ccc2c(=O)[nH]c(CCCC(=O)N3CCC(C(=O)c4ccc(F)c(F)c4)CC3)nc21 [Compound C248, 2-{4-[4-(3,4-Difluoro-benzoyl)-piperidin-1-yl]-4-oxo-butyl}-7-methyl-3,7-dihydro-pyrrolo[2,3-d]pyrimidin-4-one] | – | – | 8.7e-09 | – | 2.3e-10 | 2400 | 0.7 |
| Cn1ccc2c(=O)[nH]c(CCCC(=O)N3CCC(C(=O)c4ccc(C(C)(F)F)cc4)CC3)nc21 [Compound C249, 2-(4-{4-[4-(1,1-Difluoro-ethyl)-benzoyl]-piperidin-1-yl}-4-oxo-butyl)-7-methyl-3,7-dihydro-pyrrolo[2,3-d]pyrimidin-4-one] | – | – | 1.8e-09 | – | 1.2e-10 | 1100 | 0.42 |
| COc1ccc(C(=O)C2CN(C(=O)CCCc3cn4cccc4c(=O)[nH]3)C2)cc1 [Compound D1, 3-{4-[3-(4-Methoxy-benzoyl)-azetidin-1-yl]-4-oxo-butyl}-2H-pyrrolo[1,2-a]pyrazin-1-one] | – | – | 5.4e-07 | – | 8.5e-08 | 3100 | 120 |
